Source: US11065300B2, “Immunomodulator for hypersensitivity reaction to house dust mite-derived allergen” (MD HEALTHCARE INC., priority 2016, dated 2021)

System: macrophage RAW264.7
Assay: IL-6 and TNF-alpha secretion by macrophages given MicA sRNA Salmonella vesicles mixed with PMB
Assay type: cell-based
Procedure: Salmonella-derived vesicles themselves have good immunogenicity, but toxicity due to LPS present in the extracellular membrane is a problem. In order to solve this problem, the induction level of innate immune response was evaluated by mixing PMB inhibiting the activity of LPS with vesicles derived from Salmonella overexpressing Mic A sRNA.
Specifically, inflammatory cells (macrophage RAW264.7, 5×10^5 cells/well) were cultured in DMEM comprising 10% FBS and antibiotics (100 units/ml penicillin and 100 μg/ml streptomycin) for 24 hours at 37° C. 24 well tissue culture plate (TPP). After the medium was removed, extracellular vesicles comprising PMB were changed to serum-free DMEM medium added at a concentration of 1 ug/ml. After 15 hours, secretion of IL-6 and TNF-alpha was measured in inflammatory cells.
In order to determine the optimum PMB dilution concentration, in the above method, the PMB concentration was subdivided into 1, 2, 4, 8, and 10 ug/ml and administered to the macrophages together with the vesicles.

In the case of polymyxin B [PMB], the IL-6 secretion (PMB 1 μg/ml or 10 μg/ml mixed with vesicles 1 ug/ml, RAW264.7, 15 hours) is reported as “decreased”, the TNF-alpha secretion (PMB 10 μg/ml mixed with vesicles 1 ug/ml, RAW264.7, 15 hours) is reported as “inhibited” and the “PMB concentration above which secretion of IL-6 no longer decreased” value (PMB 1, 2, 4, 8 and 10 ug/ml with vesicles, RAW264.7) is reported as 2 µg/mL.
